These results are taken from patent US6995170B1, “Semi-hydrochloride of 8-cyano-1-cyclopropyl-7-(1S,6S-2,8-diazabicyclo[4.3.0]nonan-8-yl)-6-fluoro-1, 4-dihydro-4-oxo-3-quinolinecarboxylic acid” (Bayer Aktiengesellschaft, priority 1998, dated 2006).

This data set is described as follows: Solubility in water (strength of solutions that can be prepared).

Structures are written as SMILES. Counter-ions that a name gives are not always drawn.

On to `N#Cc1c(N2C[C@@H]3CCCN[C@@H]3C2)c(F)cc2c(=O)c(C(=O)O)cn(C3CC3)c12` [CCDC hydrochloride], for which the “strength of solutions in water that can be prepared (solubility in water)” value is “approximately 2.8 % (w/w)”.

In the case of `N#Cc1c(N2C[C@@H]3CCCN[C@@H]3C2)c(F)cc2c(=O)c(C(=O)O)cn(C3CC3)c12` [CCDC, 8-Cyano-1-cyclopropyl-7-(1S,6S-2,8-diazabicyclo[4.3.0]nonan-8-yl)-6-fluoro-1,4-dihydro-4-oxo-3-quinolinecarboxylic acid], the “strength of solutions in water that can be prepared (solubility in water)” value is “about 0.02 % (w/w)”.
